Measurements published in patent publication US20110183904A1, “METHODS AND COMPOSITIONS FOR ALTERING BEHAVIOR ASSOCIATED WITH AUTISM SPECTRUM DISORDER” (The Children's Mercy Hospital, priority 2008, published 2011).
“And” between values parts separate entries of the source, which are not always exact repeats. Equal values may be shown once. “Also recorded” adds a separate entry of the source.

What was measured:
Gαs mRNA in PBMCs = Gαs mRNA in PBMCs exposed to vasopressin (real-time RT-PCR); assay type: cell-based, human
Method: (§1) Samples were taken from the patients, as described in Example 1, and mRNA was isolated from cells exposed to vasopressin and analyzed for amount of mRNA expressing Gαs and Gαq.
(§2) Venipuncture. 3 ml/kg of blood (to a maximum of 40 cc) were drawn after a 2 hour fast between 10 am and 12 am as previously described (Modahl). EMLA (topical lidocaine cream) was placed on the antecubital region of both arms and covered with tegaderm prior to blood draw. 10 ml of blood was collected in heparinized tubes on ice until processing within 15 minutes. This aliquot was centrifuged at 4° C. at 3000 g for 20 minutes, after which the plasma was stored in 1 ml aliquots at −80° C. until further processing, at which time it was transported on dry ice to the laboratory. The remaining blood (up to 30 cc) was placed on ice and transported within 30 minutes of blood draw to the same lab. PBMC isolation, hormone treatment and cell culture. PBMCs were isolated from heparinized blood using Histopaque 1077 (Sigma-Aldrich, St. Louis, Mo.). Briefly, 5 ml of blood was diluted 1:1 in PBS and carefully layered onto 3 ml of Histopaque 1077 in a 50 ml conical centrifuge tube. Tubes were centrifuged at 400 g for 30 min at RT. The buffy coat was removed from the tube and washed three times in complete RPMI without phenol red. Cell counts and viability were determined using Trypan blue. Cell viability was >95%. Resultant PBMC's were suspended in complete RPMI with 10% charcoal stripped, dilapidated fetal calf serum (FCS) (Invitrogen, Carlsbad, Calif.) and added in 1 ml aliquots to 12 well plate with vehicle and vasopressin (10−8M) in RPMI+10% charcoal stripped, dilapidated FCS. Cells were incubated overnight (18-24 hr) before wells were harvested and rinsed. Cell suspensions were centrifuged at 500 g for 10 min at RT, and supernatant was aspirated. Buffer RLT Plus from the RNeasy Mini Plus Kit (QIAgen, Valencia, Calif.) was added to the cell pellets before vortexing to lyse cells. Samples were stored at −80° C. before RNA purification and isolation.
(§3) RNA isolation and quantitation. Samples were thawed, vortexed, and placed in QIAshredder columns. Columns were centrifuged for 2 min at 15000 g. The homogenized lysate was transferred to a gDNA Eliminator spin column and centrifuged for 30 sec at 9000 g. Equal volumes of 70% ethanol were added to the eluent. The mixture was transferred to RNeasy spin columns and centrifuged for 15 sec at 9000 g. Columns were washed with Buffer RW1 and the Buffer RPE, centrifuging for 15 sec at 9000 g, each time discarding the eluent. Buffer RPE was again added and columns centrifuged for 2 min at 9000 g to dry the column. Columns were then centrifuged for 1 min at 15000 g. RNA was eluted with the addition of Nuclease-free water and spun for 1 min at 9000 g. RNA was examined by spectrophotometry and quantitated using the Ribogreen assay (Invitrogen, Carlsbad, Calif.). Samples were diluted 1:200. Standards of 0, 20, 100, 500, and 1000 ng/ml were made from E. coli ribosomal RNA in TE buffer. Ribogreen reagent (1:200) was added to samples and standards, and samples were read on a Bio-Tek FLx800 fluorescent plate reader. RNA was diluted in nuclease-free water to a final concentration of 150 ng/ml cDNA.
(§4) cDNA construction and one-step real-time RT-PCR. Reverse transcription was performed using the SuperScript II Reverse Transcription Kit (Invitrogen, Carlsbad, Calif.). […]

Gαq mRNA in PBMCs = Gαq mRNA in PBMCs exposed to vasopressin (real-time RT-PCR); assay type: cell-based, human
Method: as §1, §2, §3, §4

Gαs protein in PBMCs = assay: Gαs protein expression in PBMCs exposed to vasopressin (immunoblot); assay type: cell-based, human
Method: (§5) Membrane preparation for membrane-associated proteins. For protein studies, PBMC's were manipulated at 4° C., as previously described in Example 4. PBMC's were individually homogenized (1:30, wt/vol) in ice-cold 0.25 M sucrose and 50 mM Tris-HCL, (pH 7.6) in a Dounce homogenizer, centrifuged twice at 800×g for 5 min before centrifugation of the supernatants at 30,000×g for 60 min. The pellet was resuspended in assay buffer and used directly in the binding assay. Protein concentration was determined by BCA protein assay kit (Pierce, Rockford, Ill.) using bovine serum albumin (BSA) as a standard.
(§6) Immunoblot analysis for membrane-associated proteins. Total membrane proteins were prepared as for receptor assays above. Samples were electrophoresed in 12% Tris-HCl resolving gels and transferred to 0.45 μm nitrocellulose membranes (Bio-Rad, Hercules, Calif.) by electroblotting. […] After three washes in TBST, membranes were incubated for 1 h in TBST and 1% non fat dry milk with horseradish peroxidase conjugated 2° antibodies (Jackson Immunoresearch, West Grove, Pa.). Bands were visualized by exposure of the membranes to autoradiographic film (MidSci, St. Louis, Mo.). The membranes were then stripped with Restore™ Western Blot Stripping Buffer (Pierce, Rockford Ill.) for 30 min at 37° C. and reprobed for actin protein as an internal control. The bands were quantified using a densitometer (GE Healthcare, Piscataway, N.J.).
(§7) Specific G protein antibodies. Specific Gαs and Gαq/11 antibodies made in rabbit without cross reactivity to other G proteins were used at a 1:500 dilution and originated from Santa Cruz Biotechnology (Santa Cruz, Calif.).

Gαq protein in PBMCs = assay: Gαq protein expression in PBMCs exposed to vasopressin (immunoblot); assay type: cell-based, human; design: Gαq protein expression, Control Vasopressin / Gαq protein expression, Average, Control Vasopressin: scale not given here
Method: as §5, §6, §7

Gαs in PBMCs = conditions: bipolar illness and schizophrenia; cited from earlier work
[1] = PBMCs of individual children with ASD, vasopressin 10−8M, 18-24 hr
[2] = PBMCs of individual control children, vasopressin 10−8M, 18-24 hr
[3] = average of autism group, vasopressin 10−8M
[4] = average of control group, vasopressin 10−8M
[5] = ASD versus without ASD, both exposed to vasopressin
[6] = PBMCs of individual children with ASD, immunoblot densitometry
[7] = PBMCs of individual control children, immunoblot densitometry

Q: With NC(=O)CC[C@@H]1NC(=O)[C@H](Cc2ccccc2)NC(=O)[C@H](Cc2ccc(O)cc2)NC(=O)[C@@H](N)CSSC[C@@H](C(=O)N2CCC[C@H]2C(=O)N[C@@H](CCCN=C(N)N)C(=O)NCC(N)=O)NC(=O)[C@H](CC(N)=O)NC1=O [Vasopressin, Arginine vasopressin] as the molecule, how does the “Gαs mRNA (% of control), Autism Vasopressin” value (Gαs mRNA in PBMCs; [1]) read?
A: 59.5 % of control and 151.6 % of control and 373.2 % of control and 65.9 % of control and 181.8 % of control and 66.3 % of control and 52.6 % of control and 77 % of control and 62 % of control and 54 % of control and 21.1 % of control and 114.8 % of control and 144.4 % of control and 67.6 % of control and 99.7 % of control and 147.3 % of control and 78.5 % of control and 43.7 % of control and 214.4 % of control

Q: And the “Gαs mRNA (% of control), Control Vasopressin” value (Gαs mRNA in PBMCs; [2])?
A: 200 % of control and 245.8 % of control and 137.6 % of control and 66.3 % of control and 42.7 % of control and 58.3 % of control and 120 % of control and 31.9 % of control and 33.1 % of control and 66.1 % of control and 30.8 % of control

Q: What about the “Gαs mRNA (% of control), Average, Autism Vasopressin” value (Gαs mRNA in PBMCs; [3]) of the same molecule?
A: 109.1 % of control

Q: And the “Gαs mRNA (% of control), Average, Control Vasopressin” value (Gαs mRNA in PBMCs; [4])?
A: 93.9 % of control

Q: And the “change of Gαs mRNA on vasopressin exposure” value (Gαs mRNA in PBMCs; healthy patients)?
A: increased

Q: What about the “Gαq mRNA (% of control), Autism Vasopressin” value (Gαq mRNA in PBMCs; [1]) of the same molecule?
A: 7.45 % of control and 48.7 % of control and 96.6 % of control (2×) and 171.8 % of control and 43.6 % of control and 37.48 % of control and 13.87 % of control and 12.07 % of control and 24.1 % of control and 7.99 % of control and 48.3 % of control and 90.1 % of control and 90.18 % of control and 107.8 % of control and 8.62 % of control and 1.94 % of control and 30.78 % of control

Q: What about the “Gαq mRNA (% of control), Control Vasopressin” value (Gαq mRNA in PBMCs; [2]) of the same molecule?
A: 9.17 % of control and 3.36 % of control and 54.5 % of control and 23.7 % of control and 1.04 % of control and 12.94 % of control and 1.11 % of control and 100.5 % of control and 59.8 % of control and 146.7 % of control and 45.1 % of control and 16.42 % of control and 24.87 % of control and 26.4 % of control

Q: What about the “Gαq mRNA (% of control), Average, Autism Vasopressin” value (Gαq mRNA in PBMCs; [3]) of the same molecule?
A: 52.11 % of control

Q: And the “Gαq mRNA (% of control), Average, Control Vasopressin” value (Gαq mRNA in PBMCs; [4])?
A: 37.5 % of control

Q: What about the “change of Gαq mRNA on vasopressin exposure” value (Gαq mRNA in PBMCs; healthy patients) of the same molecule?
A: increased

Q: What about the “Gαs protein expression after vasopressin exposure, patients with ASD lower than patients without ASD” value (Gαs protein in PBMCs; [5]) of the same molecule?
A: about 37%

Q: And the “Gαs protein expression, Autism Vasopressin” value (Gαs protein in PBMCs; [6])?
A: 0.16 and 0.03 (2×) and 0.04 and 0.01 and 0.14 and 0 and 0.33 (2×) and 0.69 and 0.83 and 0.86 and 0.52 and 0.7

Q: What about the “Gαs protein expression, Control Vasopressin” value (Gαs protein in PBMCs; [7]) of the same molecule?
A: 0.3 and 0.83 and 0.35 and 1.63 and 0.33 and 0.19 and 0.48 and 0.29 and 1.26 and 0.51 and 0.62 and 0.67

Q: And the “Gαs protein expression, Average, Autism Vasopressin” value (Gαs protein in PBMCs; average of autism group)?
A: .33

Q: What about the “Gαs protein expression, Average, Control Vasopressin” value (Gαs protein in PBMCs; average of control group) of the same molecule?
A: .54

Q: What about the “change of Gαs protein expression on vasopressin exposure” value (Gαs protein in PBMCs; patients with ASD) of the same molecule?
A: down-regulation trend; also recorded: decreased

Q: What about the “change of Gαs protein expression on vasopressin exposure” value (Gαs protein in PBMCs; patients without ASD) of the same molecule?
A: appeared to be higher; also recorded: up-regulating

Q: And the “Gαq protein expression after vasopressin exposure, patients with ASD less than patients without ASD” value (Gαq protein in PBMCs; [5])?
A: about 28%

Q: And the “Gαq protein expression, Autism Vasopressin” value (Gαq protein in PBMCs; [6])?
A: 4.17 and 12.58 and 0 (5×) and 9.53 and 0.36 and 1.26 and 4.64 and 4.01 and 0.19 and 1.13

Q: What about the “Gαq protein expression, Control Vasopressin” value (Gαq protein in PBMCs; [7]) of the same molecule?
A: 7.84 and 0.25 and 0.6 and 0 and 10.56 and 0.26 and 1.86 and 3.96 and 0.35 and 2.86 and 2.81 and 13.29

Q: And the “Gαq protein expression, Average, Autism Vasopressin” value (Gαq protein in PBMCs; average of autism group)?
A: 2.71

Q: And the “Gαq protein expression, Average, Control Vasopressin” value (Gαq protein in PBMCs; average of control group)?
A: 3.72

Q: And the “change of Gαq protein expression on vasopressin exposure” value (Gαq protein in PBMCs; patients with ASD)?
A: down-regulation trend; also recorded: decreased

Q: And the “change of Gαq protein expression on vasopressin exposure” value (Gαq protein in PBMCs; patients without ASD)?
A: appeared to be higher; also recorded: up-regulating

Q: For O=C(CCCN1CCC(O)(c2ccc(Cl)cc2)CC1)c1ccc(F)cc1 [haldol], which “Gαs levels in PBMCs under treatment” value (Gαs in PBMCs) is on record?
A: decrease
